This note sets out measurements from ChEMBL document CHEMBL3425453, “Luciferin and derivatives as a DYRK selective scaffold for the design of protein kinase inhibitors” (Eur J Med Chem, 2015).

The target in the assay is Cyclin-dependent kinase 2 (Homo sapiens) (UniProt P24941).

On to `O=C(O)[C@H]1CSC(c2ccc3cc(O)ccc3n2)=N1`, for which the Tm was found to be 43.4 °C.

Consider `O=C(O)[C@H]1CSC(c2ccc3cccc(O)c3n2)=N1`, for which the Tm was determined as 43.9 °C.
